From patent publication US6608069B1, “Phenyl xanthine derivatives” (SmithKline Beecham Corporation, priority 1998, dated 2003)

tested on: cytokine-stimulated human umbilical vein endothelial cells; experiment: Cell Adhesion Assay: adherence of fluorescently-labelled leukocytes to endothelial cell monolayers; type: cell-based; conditions: inhibition of cytokine-stimulated adhesion minus basal adhesion; calcein-AM labelled leukocytes on HUVEC monolayers
Description: The antiadhesion activity of compounds of the invention was determined using a modification of the previously described method, Jurgensen, C. H. et. al., J. Immunol. 144: 653-661. The adhesiveness of cytokine-stimulated human umbilical vein endothelial cells was assessed by quantitating the adherence of fluorescently-labelled (calcein-AM, Molecular Probes, Eugene, Oreg.) leukocytes to endothelial cell monolayers. Activity was determined by calculating inhibition of cytokine-stimulated adhesion minus the basal adhesion (unstimulated).

Compound	IC50 [nM]
COCCOCCOCCOCCOCCOCCOCCOCCOCCNC(=O)/C=C/c1ccc(-c2nc3c(=O)n(CC4CCCCC4)c(=O)n(CC4CCCCC4)c3[nH]2)cc1 [Example 69, (E)-4-(1,3-Bis(cyclohexylmethyl)-1,2,3,6-tetrahydro-2,6-dioxo-9H-purin-8-yl)cinnamic Acid Nonaethylene Glycol Methyl Ether Amide]	62 ± 27
COCCOCCOCCOCCOCCOCCOCCOCCOCCNC(=O)c1ccc(-c2nc3c(=O)n(CC4CCCCC4)c(=O)n(CC4CCCCC4)c3[nH]2)cc1 [Example 75, 4-(1,3-Bis(cyclohexylmethyl)-1,2,3,6-tetrahydro-2,6-dioxo-9H-purin-8-yl)benzoic Acid Nonaethylene Glycol Methyl Ether Amide]	60 ± 25
COCCOCCOCCOCCOCCOCCOCCOCCOCCNC(=O)/C=C/c1ccc(-c2nc3c(=O)n(CC(C)C)c(=O)n(CC(C)C)c3[nH]2)cc1 [Example 72, (E)-4-(1,3-bis(2-methylpropyl)-1,2,3,6-tetrahydro-2,6-dioxo-9H-purin-8-yl)cinnamic Acid Nonaethylene Glycol Methyl Ether Amide]	> 2000
COCCOCCOCCN(CCOCCOCCOC)C(=O)/C=C/c1ccc(-c2nc3c(=O)n(CC4CCCCC4)c(=O)n(CC4CCCCC4)c3[nH]2)cc1 [Example 95, (E)-4-(1,3-bis(cyclohexylmethyl)-1,2,3,6-tetrahydro-2,6-dioxo-9H-purin-8-yl)cinnamic Acid N,N-Bis Triethylene Glycol Methyl Ether Amide]	1700 ± 690
COCCOCCOCCOCCOCCOCCOCCOCCOCCNC(=O)c1ccc(-c2nc3c(c(=O)n(CC4CCCCC4)c(=O)n3CC3CCCCC3)n2Cc2ccccc2)cc1 [Example 93, 4-(1,3-Bis(cyclohexylmethyl)-2,3,6,7-tetrahydro-2,6-dioxo-7-benzyl-1H-purin-8-yl)benzoic Add Nonaethylene Glycol Methyl Ether Amide]	69 ± 97
COCCOCCOCCOCCOCCOCCOCCOCCOCCNC(=O)/C=C/c1ccc(-c2nc3c(=O)n(CC4CCCC4)c(=O)n(CC4CCCC4)c3[nH]2)cc1 [Example 71, (E)-4-(1,3-bis(cyclopentylmethyl)-1,2,3,6-tetrahydro-2,6-dioxo-9H-purin-8-yl)cinnamic Acid Nonaethylene Glycol Methyl Ether Amide]	240 ± 200
COCCOCCOCCOCCOCCOCCOCCOCCOCCOC(=O)/C=C/c1ccc(-c2nc3c(=O)[nH]c(=O)n(CC(C)C)c3[nH]2)cc1 [Example 57]	83 ± 41
COCCOCCOCCOCCOCCOCCOCCOCCOCCNC(=O)/C=C/c1cccc(-c2nc3c(=O)n(CC4CCCCC4)c(=O)n(CC4CCCCC4)c3[nH]2)c1 [Example 67, (E)-3-(1,3-bis(cyclohexylmethyl)-1,2,3,6-tetrahydro-2,6-dioxo-9H-purin-8-yl)cinnamic Acid Nonaethylene Glycol Methyl Ether Amide]	2000 ± 820
COCCOCCOCCOCCOCCOCCOCCOCCOCCOC(=O)/C=C/c1ccc(-c2nc3c(=O)n(C)c(=O)n(C)c3[nH]2)cc1 [Example 47, (E)-4-(1,3-bis(methyl)-1,2,3,6-tetrahydro-2,6-dioxo-9H-purin-8-yl)cinnamic Acid Nonaethylene Glycol Methyl Ether Ester]	710 ± 410
COCCOCCOCCOCCOCCOCCOCCOCCOCCN(CC1CC1)C(=O)/C=C/c1ccc(-c2nc3c(=O)n(CC4CCCCC4)c(=O)n(CC4CCCCC4)c3[nH]2)cc1 [Example 100, (E)-4-(1,3-Bis(cyclohexylmethyl)-1,2,3,6-tetrahydro-2,6-dioxo-9H-purin-8-yl)cinnamic Acid N-cyclopropylmethyl Nonaethylene Glycol Methyl Ether Amide]	25 ± 8
COCCOCCOCCOCCOCCOCCOCCOCCOCCNC(=O)/C=C/c1ccc(-c2nc3c(c(=O)n(CC4CCCCC4)c(=O)n3CC3CCCCC3)n2Cc2ccccc2)cc1 [Example 92, (E)-4-(1,3-Bis(cyclohexylmethyl)-2,3,6,7-tetrahydro-2,6-dioxo-7-benzyl-1H-purin-8-yl)cinnamic Acid Nonaethylene Glycol Methyl Ether Amide]	23 ± 12
COCCOCCOCCOCCOCCOCCOCCOC(=O)/C=C/c1ccc(-c2nc3c(c(=O)[nH]c(=O)n3CC3CCCCC3)n2C)cc1 [Example 103, (E)-4-[(3-Cyclohexylmethyl)-2,3,6,7-tetrahydro-2,6-dioxo-7-methyl-1H-purin-8-yl]cinnamic Acid Heptaethylene Glycol Methyl Ether Ester]	230 ± 110
COCCOCCOCCOCCOCCOCCOCCOCCOCCOC(=O)c1ccc(-c2nc3c(c(=O)n(CC4CCCCC4)c(=O)n3CC3CCCCC3)n2C)cc1 [Example 89, 4-(1,3-Bis(cyclohexylmethyl)-2,3,6,7-tetrahydro-2,6-dioxo-7-methyl-1H-purin-8-yl)benzoic Acid Nonaethylene Glycol Methyl Ether Ester]	38 ± 18
COCCOCCOCCOCCOCCOCCOCCOCCOCCNC(=O)c1ccc(-c2nc3c(=O)n(CC4CCCCC4)c(=O)n(CC4CCCCC4)c3[nH]2)nc1 [Example 99, 6-(1,3-Bis(cyclohexylmethyl)-1,2,3,6-tetrahydro-2,6-dioxo-9H-purin-8-yl)nicotinic Acid Nonaethylene Glycol Methyl Ether Amide]	77 ± 29
CCCn1c(=O)c2nc(-c3cccc(/C=C/C(=O)OCCOCCOCCOCCOCCOCCOCCOCCOCCOC)c3)[nH]c2n(CCC)c1=O [Example 60, (E)-3-(1,3-bis(propyl)-1,2,3,6-tetrahydro-2,6-dioxo-9H-purin-8-yl)cinnamic Acid Nonaethylene Glycol Methyl Ether Ester]	> 1000
COCCOCCOCCOCCOCCOCCOCCOCCOCCOC(=O)/C=C/c1ccc(-c2nc3c(=O)n(CC4CCCCC4)c(=O)n(CC4CCCCC4)c3[nH]2)cc1 [Example 35, (E)-4-[1,3-Bis(cyclohexylmethyl)-1,2,3,6-tetrahydro-2,6-dioxo-9H-purin-8-yl)cinnamic Acid Nonaethylene Glycol Methyl Ether Ester]	29 ± 3
CCCn1c(=O)c2nc(-c3cccc(/C=C/C(=O)OCCOCCOCCOCCOCCOCCOCCOCCOCCOC)c3)[nH]c2n(Cc2ccccc2)c1=O [Example 39, (E)-3-((1-propyl-3-benzyl)-1,2,3,6-tetrahydro-2,6-dioxo-9H-purin-8-yl)cinnamic Acid Nonaethylene Glycol Methyl Ether Ester]	130 ± 80
COCCOCCOCCOCCOCCOCCOCCOCCOCCOC(=O)/C=C/c1ccc(-c2nc3c(=O)n(CC4CCCCC4)c(=O)n(C)c3[nH]2)cc1 [Example 56, (E)-4-((1-cyclohexylmethyl-3-methyl)-1,2,3,6-tetrahydro-2,6-dioxo-9H-purin-8-yl)cinnamic Acid Nonaethylene Glycol Methyl Ether Ester]	160 ± 70
CCCCCCCCCCCCOCCOCCOCCOCCOCCOCCOC(=O)/C=C/c1ccc(-c2nc3c(=O)n(CC4CCCCC4)c(=O)n(CC4CCCCC4)c3[nH]2)cc1 [Example 59, (E)-4-(1,3-bis(cyclohexylmethyl)-1,2,3,6-tetrahydro-2,6-dioxo-9H-purin-8-yl)cinnamic Acid Hexaethylene Glycol dodecyl Ether Ester]	57 ± 24
C=C(C)Cn1c(-c2ccc(/C=C/C(=O)OCCOCCOCCOCCOCCOCCOCCOCCOCCOC)cc2)nc2c1c(=O)n(CC1CCCCC1)c(=O)n2CC1CCCCC1 [Example 86, (E)-4-(1,3-Bis(cyclohexylmethyl)-2,3,6,7-tetrahydro-2,6-dioxo-7-(2-methyl-2-propenyl)-1H-purin-8-yl)cinnamic Acid Nonaethylene Glycol Methyl Ether Ester]	8 ± 3
COCCOCCOCCOCCOCCOCCOCCOCCOCCOC(=O)/C=C/c1ccc(-c2nc3c(=O)n(CC4CCC4)c(=O)n(CC4CCC4)c3[nH]2)cc1 [Example 61, (E)-4-(1,3-bis(cyclobutylmethyl)-1,2,3,6-tetrahydro-2,6-dioxo-9H-purin-8-yl)cinnamic Acid Nonaethylene Glycol Methyl Ether Ester]	11 ± 4
COCCOCCOCCOCCOCCOCCOCCOCCOCCOC(=O)c1ccc(-c2nc3c(c(=O)n(CC4CCCCC4)c(=O)n3CC3CCCCC3)n2Cc2ccccc2)cc1 [Example 88, 4-(1,3-Bis(cyclohexylmethyl)-2,3,6,7-tetrahydro-2,6-dioxo-7-benzyl-1H-purin-8-yl)benzoic Acid Nonaethylene Glycol Methyl Ether Ester]	49 ± 19
COCCOCCOCCOCCOCCOCCOCCOCCOCCOC(=O)/C=C/c1ccc(-c2nc3c(=O)n(C)c(=O)n(CC(C)C)c3[nH]2)cc1 [Example 63, (E)-4-(1-methyl-3-(2-methylpropyl)-1,2,3,6-tetrahydro-2,6-dioxo-9H-purin-8-yl)cinnamic Acid Nonaethylene Glycol Methyl Ether Ester]	55 ± 34
COCCOCCOCCOCCOCCOCCOCCOCCOCCOC(=O)/C=C/c1ccc(-c2nc3c(c(=O)n(CC4CCCCC4)c(=O)n3CC3CCCCC3)n2CC#N)cc1 [Example 87, (E)-4-(1,3-Bis(cyclohexylmethyl)-2,3,6,7-tetrahydro-2,6-dioxo-7-(cyanomethyl)-1H-purin-8-yl)cinnamic Acid Nonaethylene Glycol Methyl Ether Ester]	37 ± 13
COCCOCCOCCOCCOCCOCCOCCOCCOCCOC(=O)/C=C/c1ccc(-c2nc3c(c(=O)n(CC4CCCCC4)c(=O)n3CC3CCCCC3)n2Cc2ccccc2)cc1 [Example 77, (E)-4-(1,3-Bis(cyclohexylmethyl)-2,3,6,7-tetrahydro-2,6-dioxo-7-benzyl-1H-purin-8-yl)cinnamic Acid Nonaethylene Glycol Methyl Ether Ester]	9.6 ± 5
CCCCn1c(=O)n(CC2CCCCC2)c(=O)c2nc(-c3ccc(/C=C/C(=O)OCCOCCOCCOCCOCCOCCOCCOCCOCCOC)cc3)[nH]c21 [Example 48]	< 0.1
COCCOCCOCCOCCOCCOCCOCCOCCOCCOC(=O)/C=C/c1ccc(-c2nc3c(=O)n(Cc4ccc(F)cc4)c(=O)n(Cc4ccc(F)cc4)c3[nH]2)cc1 [Example 58, (E)-4-(1,3-bis(4-fluorobenzyl)-1,2,3,6-tetrahydro-2,6-dioxo-9H-purin-8-yl)cinnamic Acid Nonaethylene Glycol Methyl Ether Ester]	< 0.1
